{"source": "patent US5981517A", "about": "“Androstene derivatives” (priority 1997, dated 1999)", "key": {"granuloma / thymolysis": {"test_system": "granuloma / thymolysis", "experiment": "Comparison of local effect and systemic side-effects (therapeutic index)", "assay_type": "in vivo, rat", "conditions": "granuloma relative potency / thymolysis relative potency", "protocol": "The test compound was dissolved in acetone and aliquots of varying concentrations were injected into cotton pellets. The pellets were dried and then one pellet was implanted beneath the skin of each test rat. Six days later, the animals were sacrificed and the granulation tissue (granuloma) which formed in and around the implanted pellet was removed, dried and weighed. In addition, the thymi and adrenals were removed and weighed.\n(§1) Several further studies were undertaken to determine the effects of a selected compound of the invention and prior art steroids on thymi weights in rats when the drugs were systemically administered. In each of these studies, male Sprague-Dawley rats were used. The test compounds were suspended in 0.5% CMC (carboxymethylcellulose) and injected subcutaneously once daily for three days. On the fifth day (48 hours following the last treatment), the animals were sacrificed and the thymi weights were recorded. Body weight gains were measured 24 hours after the last treatment.\nThe ED50 's calculated for the local cotton pellet granuloma assay and the TED40 's calculated on the basis of thymus inhibition testing as described above were used to arrive at relative potency and a therapeutic index for a representative species of the invention as compared to prior art steroids."}, "skin": {"test_system": "skin", "experiment": "Skin weight test, 10 days of topical treatment in the rat", "assay_type": "in vivo, Male Sprague-Dawley rats", "conditions": "for Wet skin weight, Treated, Decrease / Wet skin weight, Untreated, Decrease: percent decrease of the control; for Wet skin weight, Treated, Decrease: treated flank; for Wet skin weight, Untreated, Decrease: untreated flank; for Body wt. gain / Thymus wt. / Wet skin weight, Treated / Wet skin weight, Untreated: topical 0.1%, 10 days; for Body wt. gain / Thymus wt.: daily dose 30 μg; for Thymus wt. / Wet skin weight, Treated / Wet skin weight, Untreated: mean ± S.E.; for Wet skin weight, Treated: treated left flank; for Wet skin weight, Treated / Wet skin weight, Untreated: 30 μg daily; for Wet skin weight, Untreated: untreated right flank", "protocol": "Male Sprague-Dawley rats, weighing about 210 g, were lightly anesthetized with ether, shaved and marked in three areas on each flank with intradermally injected blue ink. […] Treated control animals received daily topical administration of the vehicle (DMF) alone. Solvent and test compound solutions (10 μL) were applied once daily for 10 consecutive days, with […] necessary. On the eleventh day, the animals were sacrificed, their skins were removed and 16 mm diameter plugs were punched out from each area. The plugs were scraped carefully to remove subcutaneous fat and muscle, then they were blotted on filter paper and weighed. Skin atrophy is a known side effect associated with topically applied anti-inflammatory steroids."}, "thymi": {"test_system": "thymi", "design": "species or system male Sprague-Dawley rats", "conditions": "rat, in vivo, sc", "protocol": "as §1, with “treatment. From the test results, the TED40 's (thymolytic effective doses, that is, doses required to achieve 40% inhibition of thymi weight) and relative potencies of a representative compound of the invention and reference steroids were calculated. […] It is evident that the higher the inhibition of thymus activity at a given dose, the more toxic the compound is.” for “treatment.”"}, "rats": {"test_system": "rats", "conditions": "oral; cited from earlier work"}, "[1]": {"test_system": "forearms of a human volunteer", "experiment": "Further human vasoconstriction testing, Method 1", "assay_type": "in vivo", "protocol": "The mixtures, in 50 μL amounts, were applied to circular patches (8 mm diameter). After evaporation of ethanol, the patches were applied to the forearms of a human volunteer, and covered with a water impervious film for 3 hr. The intensity of vasoconstriction (scale 0-4) was judged at various time intervals after removal of the patches. The grading scale was as follows: 0, normal skin; 1, slight pallor of indistinct outline; 2, pallor with at least two corners outlined; 3, even pallor with a clear outline of the application sites; 4, very intense pallor. The skin tests (2-4 tests on each compound) were performed on the same person."}, "[2]": {"target": "T1, rat lung glucocorticoid receptor (Rattus norvegicus, UniProt P06536)", "T1 construct": "Immediately after resection of the lungs, the tissue was frozen in ice; The cytosol was prepared; from tissue; host or cells: lung cytosol of adrenalectomized male Sprague-Dawley rats", "T1 sequence (P06536 1-795)": "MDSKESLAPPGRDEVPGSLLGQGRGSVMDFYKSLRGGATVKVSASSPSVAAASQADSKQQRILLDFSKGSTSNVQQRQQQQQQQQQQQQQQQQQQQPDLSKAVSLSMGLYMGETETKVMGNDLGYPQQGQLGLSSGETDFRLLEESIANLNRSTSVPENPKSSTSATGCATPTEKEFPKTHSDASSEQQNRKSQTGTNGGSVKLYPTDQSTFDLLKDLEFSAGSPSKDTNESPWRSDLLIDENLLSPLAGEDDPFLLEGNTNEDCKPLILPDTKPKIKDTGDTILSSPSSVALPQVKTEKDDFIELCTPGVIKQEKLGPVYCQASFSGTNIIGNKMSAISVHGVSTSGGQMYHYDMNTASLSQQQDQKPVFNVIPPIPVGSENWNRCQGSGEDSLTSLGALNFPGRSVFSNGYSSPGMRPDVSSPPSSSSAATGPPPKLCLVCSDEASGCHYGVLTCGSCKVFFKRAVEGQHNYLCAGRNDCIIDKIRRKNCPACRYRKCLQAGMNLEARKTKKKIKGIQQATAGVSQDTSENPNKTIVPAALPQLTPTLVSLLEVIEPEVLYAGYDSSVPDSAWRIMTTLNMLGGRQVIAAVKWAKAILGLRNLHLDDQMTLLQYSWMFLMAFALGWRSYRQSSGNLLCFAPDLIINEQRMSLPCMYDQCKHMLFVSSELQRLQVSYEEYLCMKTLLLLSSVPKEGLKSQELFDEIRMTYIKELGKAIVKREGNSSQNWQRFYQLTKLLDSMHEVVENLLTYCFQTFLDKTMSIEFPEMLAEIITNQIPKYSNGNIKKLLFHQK", "conditions": "previously found, cited from earlier work"}, "[3]": {"test_system": "forearm of a human volunteer", "experiment": "Human vasoconstriction test", "assay_type": "in vivo", "design": "key: 0 = normal skin, 4 = very intense pallor", "conditions": "10 mM", "protocol": "Test compounds (10 mM) were dissolved in ethanol/propylene glycol (9/1) solution, and 50 μL of the mixtures were applied to circular patches, 8 mm in diameter. After ethanol evaporation, the patches were applied to the forearm of a human volunteer, and covered with a water impervious film for 3 hours. The intensity of vasoconstriction was judged 1, 8, 17 and 24 hours after the patches were removed.\nThe grading scale for the vasoconstriction activity was as follows: 0, normal skin; 1, slight pallor of indistinct outline; 2, pallor with at least two corners outlined; 3, even pallor with a clear outline of the application sites; 4, very intense pallor."}}, "note": "Several values for one entry are separate records, joined by “and”; a condition that tells them apart may be missing. Equal values may be shown once. Read-outs that look alike come from different tables or passages of the source.", "data": [{"compound": "CCCC(=O)O[C@]1(C(=O)CO)CC[C@H]2[C@@H]3CCC4=CC(=O)CC[C@]4(C)[C@H]3[C@@H](O)C[C@@]21C", "note": "[Hydrocortisone 17-butyrate]", "values": [{"measurement": "Therapeutic Index (a/b)", "setting": "granuloma / thymolysis", "result": 1.23}, {"measurement": "Wet skin weight, Treated, Decrease", "setting": "skin", "result": 13.1, "unit": "%"}, {"measurement": "Wet skin weight, Untreated, Decrease", "setting": "skin", "result": 14.0, "unit": "%"}, {"measurement": "Body wt. gain", "setting": "skin", "result": "45.7 ± 10.6", "unit": "g"}, {"measurement": "Thymus wt.", "setting": "skin", "result": "540 ± 61", "unit": "mg"}, {"measurement": "Wet skin weight, Treated", "setting": "skin", "result": "86.3 ± 1.5", "unit": "mg"}, {"measurement": "Wet skin weight, Untreated", "setting": "skin", "result": "72.0 ± 4.7", "unit": "mg"}, {"measurement": "Thymolysis, Relative Potency at ED40 Level (b)", "setting": "thymi", "result": 57}]}, {"compound": "CC(=O)O", "note": "[Acetic acid]", "values": [{"measurement": "LD50", "setting": "rats", "result": 3530, "unit": "mg/kg"}]}, {"compound": "CCC(=O)O", "note": "[propionic acid]", "values": [{"measurement": "LD50", "setting": "rats", "result": 4290, "unit": "mg/kg"}]}, {"compound": "CCC(=O)O[C@]1(C(=O)CCl)[C@@H](C)C[C@H]2[C@@H]3CCC4=CC(=O)C=C[C@]4(C)[C@@]3(F)[C@@H](O)C[C@@]21C", "note": "[Clobetasol 17-propionate]", "values": [{"measurement": "Therapeutic Index (a/b)", "setting": "granuloma / thymolysis", "result": 1.54}, {"measurement": "Wet skin weight, Treated, Decrease", "setting": "skin", "result": 21.2, "unit": "%"}, {"measurement": "Wet skin weight, Untreated, Decrease", "setting": "skin", "result": 19.2, "unit": "%"}, {"measurement": "Body wt. gain", "setting": "skin", "result": "24.2 ± 2.3", "unit": "g"}, {"measurement": "Thymus wt.", "setting": "skin", "result": "190 ± 14", "unit": "mg"}, {"measurement": "Wet skin weight, Treated", "setting": "skin", "result": 78.2, "unit": "mg"}, {"measurement": "Wet skin weight, Untreated", "setting": "skin", "result": "67.6 ± 6.2", "unit": "mg"}, {"measurement": "Thymolysis, Relative Potency at ED40 Level (b)", "setting": "thymi", "result": 1927}]}, {"compound": "CCOC(=O)O[C@]1(C(=O)OCCl)CC[C@H]2[C@@H]3CCC4=CC(=O)C=C[C@]4(C)[C@H]3[C@@H](O)C[C@@]21C", "note": "[Loteprednol etabonate, chloromethyl 17α-ethoxycarbonyloxy-11β-hydroxyandrosta-1,4-dien-3-one-17β-carboxylate, reference compound]", "values": [{"measurement": "Vasoconstriction activity", "setting": "[1]; 3 Hours, 0.01 mM", "result": 0}, {"measurement": "Vasoconstriction activity", "setting": "[1]; 3 Hours, 0.05 mM", "result": 0}, {"measurement": "Vasoconstriction activity", "setting": "[1]; 3 Hours, 0.1 mM", "result": 1}, {"measurement": "Vasoconstriction activity", "setting": "[1]; 3 Hours, 0.5 mM", "result": 2}, {"measurement": "Vasoconstriction activity", "setting": "[1]; 3 Hours, 1 mM", "result": 3}, {"measurement": "Vasoconstriction activity", "setting": "[1]; 3 Hours, 5 mM", "result": 3}, {"measurement": "Vasoconstriction activity", "setting": "[1]; 3 Hours, 10 mM", "result": 4}, {"measurement": "Vasoconstriction activity", "setting": "[1]; 20 Hours, 0.01 mM", "result": 0}, {"measurement": "Vasoconstriction activity", "setting": "[1]; 20 Hours, 0.05 mM", "result": 0}, {"measurement": "Vasoconstriction activity", "setting": "[1]; 20 Hours, 0.1 mM", "result": 0}, {"measurement": "Vasoconstriction activity", "setting": "[1]; 20 Hours, 0.5 mM", "result": 0}, {"measurement": "Vasoconstriction activity", "setting": "[1]; 20 Hours, 1 mM", "result": 0}, {"measurement": "Vasoconstriction activity", "setting": "[1]; 20 Hours, 5 mM", "result": 1}, {"measurement": "Vasoconstriction activity", "setting": "[1]; 20 Hours, 10 mM", "result": 2}, {"measurement": "RBA", "setting": "[2]; with Δ1-cortienic acid", "result": 420}, {"measurement": "RBA", "setting": "[2]; without Δ1-cortienic acid", "result": 152}, {"measurement": "Vasoconstriction activity", "setting": "[3]; 1 hour after patch removal", "result": 2}, {"measurement": "Vasoconstriction activity", "setting": "[3]; 8 hours after patch removal", "result": "3 and 2"}, {"measurement": "Vasoconstriction activity", "setting": "[3]; 17 hours after patch removal", "result": 2}, {"measurement": "Vasoconstriction activity", "setting": "[3]; 24 hours after patch removal", "result": "2 and 1"}]}]}
